Data published in patent US20070134178A1, “Skin lightening complex” (priority 2005, published 2007).

How the values were obtained:
[1] = 25° C; cited from earlier work
[2] = about 20% HQ in the complex, solvent mixture of two solvents of different polarity index
Description: Although the melanin-inhibiting effectiveness of HQ is desirable, water-based formulations containing high concentration HQ are difficult to prepare due to limitations in its solubility.

times more HQ dissolved in the solvent mixture than in aqueous media [2]: about 38.5 times
Structure (SMILES): Oc1ccc(O)cc1 [HQ, 1,4-benzenediol]
HQ solubility in aqueous media [1]: up to 7.3 g/L
